Results as given in patent US20230263822A1, “MODULATION OF FACTOR 11 EXPRESSION” (Ionis Pharmaceuticals, Inc., priority 2008, published 2023).
Strand notation (5' to 3'): a small letter for the sugar, then the base; units joined by * are phosphorothioate-linked, units joined directly phosphodiester-linked; [ ] holds rarer units or linkages, { } end groups; capitals alone tell only the bases. e = 2'-O-(2-methoxyethyl) (MOE); [5mC] = 5-methylcytosine; d = 2'-deoxy (DNA)

Assays:
Format in all cases: cell-based
human Factor 11 mRNA [1] = assay: Dose-dependent inhibition of human Factor 11 in HepG2 cells, lipofectin 9.375-75 nM (Example 4); settings: for percent inhibition of Factor 11 at 9.375 nM / percent inhibition of Factor 11 at 18.75 nM / percent inhibition of Factor 11 at 37.5 nM / percent inhibition of Factor 11 at 75 nM: relative to untreated control cells
In short: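 HepG2 cells transfected via lipofectin with antisense oligonucleotide at 9.375, 18.75, 37.5 or 75 nM for about 16 h. Factor 11 mRNA quantified by real-time RT-PCR (primer probe set RTS 2966) and normalized to total RNA (RIBOGREEN). Results expressed as percent inhibition versus untreated cells.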

human Factor 11 mRNA [2] = assay: Dose-dependent inhibition of human Factor 11 in HepG2 cells, electroporation 0.7-20 uM (Example 4); settings: for percent inhibition of Factor 11 at 0.7 μM / percent inhibition of Factor 11 at 2.2 μM / percent inhibition of Factor 11 at 6.7 μM / percent inhibition of Factor 11 at 20 μM: relative to untreated control cells
In short: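 HepG2 cells electroporated with antisense gapmers at 0.7, 2.2, 6.7 and 20 μM, treated ~16 h. Factor 11 mRNA quantified by qRT-PCR (primer probe set RTS 2966), normalised to RIBOGREEN total RNA; expressed as percent inhibition versus untreated control cells.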

human Factor 11 mRNA [3] = assay: Dose-dependent antisense inhibition of human Factor 11 in HepG2 cells, lipofectin 9.375-150 nM (Example 2); settings: ~16 h
Protocol: Cells were plated at a density of 10,000 cells per well and transfected using lipofectin reagent with 9.375 nM, 18.75 nM, 37.5 nM, 75 nM, and 150 nM concentrations of antisense oligonucleotide, as specified in Table 3. After a treatment period of approximately 16 hours, RNA was isolated from the cells and Factor 11 mRNA levels were measured by quantitative real-time PCR. Human Factor 11 primer probe set RTS 2966 (forward sequence: […], incorporated herein as SEQ ID NO: 3; reverse sequence: […], incorporated herein as SEQ ID NO: 4; probe sequence: TTGTCTACTGAAGCACACCCAAACAGGGAX, incorporated herein as SEQ ID NO: 5) was used to measure mRNA levels. Factor 11 mRNA levels were adjusted according to total RNA content, as measured by RIBOGREEN. Results are presented as percent inhibition of Factor 11, relative to untreated control cells.

human Factor 11 mRNA [4] = assay: Antisense inhibition of human Factor 11 in HepG2 cells, lipofectin, 75 nM (Example 1); settings: 75 nM antisense oligonucleotide, ~24 h, relative to untreated control cells, gapmers targeted to SEQ ID NO: 1
In short: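 HepG2 cells transfected via lipofectin with 75 nM antisense oligonucleotide (5-10-5 MOE gapmers, 20-mers, phosphorothioate, 5-methylcytidines), treated ~24 h. Factor 11 mRNA quantified by real-time PCR, normalised to RIBOGREEN total RNA; percent inhibition versus untreated cells.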

human Factor 11 mRNA [5] = assay: Antisense inhibition of human Factor 11 in HepG2 cells by microwalk gapmers, lipofectin, 75 nM (Example 3)
In short: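 HepG2 cells (10,000/well) were transfected via lipofectin with 75 nM 20-mer MOE gapmers (phosphorothioate, 5-methyl-C) for about 24 h. Factor 11 mRNA was measured by qRT-PCR, normalized to RIBOGREEN total RNA, and given as percent inhibition versus untreated cells.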

[6] = HepG2, lipofectin, ~24 h, gapmers targeted to nucleobases 656 to 704 of SEQ ID NO: 1

Row | Substance | IC50 (human Factor 11 mRNA [1]) | percent inhibition of Factor 11 at 9.375 nM (human Factor 11 mRNA [1]) | percent inhibition of Factor 11 at 18.75 nM (human Factor 11 mRNA [1]) | percent inhibition of Factor 11 at 37.5 nM (human Factor 11 mRNA [1]) | percent inhibition of Factor 11 at 75 nM (human Factor 11 mRNA [1]) | IC50 (human Factor 11 mRNA [2]) | percent inhibition of Factor 11 at 0.7 μM (human Factor 11 mRNA [2]) | percent inhibition of Factor 11 at 2.2 μM (human Factor 11 mRNA [2]) | percent inhibition of Factor 11 at 6.7 μM (human Factor 11 mRNA [2]) | percent inhibition of Factor 11 at 20 μM (human Factor 11 mRNA [2]) | percent inhibition of Factor 11 at 9.375 nM (human Factor 11 mRNA [3]) | percent inhibition of Factor 11 at 18.75 nM (human Factor 11 mRNA [3]) | percent inhibition of Factor 11 at 37.5 nM (human Factor 11 mRNA [3]) | percent inhibition of Factor 11 at 75 nM (human Factor 11 mRNA [3]) | percent inhibition of Factor 11 at 150 nM (human Factor 11 mRNA [3]) | IC50 (human Factor 11 mRNA [3]) | % inhibition (human Factor 11 mRNA [4]) | % inhibition (human Factor 11 mRNA [5]; [6]) | % inhibition (human Factor 11 mRNA [5]; HepG2 cells, lipofectin, gapmers targeted to nucleobases 1018 to 1042 of SEQ ID NO: 1)
1 | 412203 (antisense eA*eA*eT*eG*eT*d[5mC]*dT*dT*dT*dG*dT*dT*dG*d[5mC]*dA*eA*eG*e[5mC]*eG*e[5mC]) [compound 412203] | 0.024 µM | 33% | 40% | 62% | 74% | 2.7 µM | 11% | 60% | 70% | 91% | 29% | 15% | 61% | 77% | 82% | 0.033 µM | 91% | 97% | 
2 | 412212 (antisense e[5mC]*e[5mC]*eG*eG*eG*dA*dT*dG*dA*dT*dG*dA*dG*dT*dG*e[5mC]*eA*eG*eA*eT) [compound 412212] |  |  |  |  |  |  |  |  |  |  | 28% | 45% | 59% | 73% | 88% | 0.025 µM | 88% |  | 89%
3 | 413467 (antisense eG*eG*eT*e[5mC]*e[5mC]*dA*d[5mC]*dA*dT*dA*dA*dA*dT*dG*dT*e[5mC]*eT*eT*eT*eG) [compound 413467] | 0.02 µM | 35% | 51% | 62% | 69% | 4.2 µM | 5% | 31% | 65% | 89% | 2% | 35% | 49% | 61% | 47% | 0.043 µM | 91% | 92% | 
4 | 413468 (antisense eG*eT*e[5mC]*eT*eA*dG*dG*dT*d[5mC]*d[5mC]*dA*d[5mC]*dA*dT*dA*eA*eA*eT*eG*eT) [compound 413468] |  |  |  |  |  |  |  |  |  |  | 14% | 34% | 56% | 78% | 75% | 0.035 µM | 84% | 83% | 
5 | 413469 (antisense eT*eG*e[5mC]*e[5mC]*e[5mC]*dT*dT*d[5mC]*dA*dT*dG*dT*d[5mC]*dT*dA*eG*eG*eT*e[5mC]*e[5mC]) [compound 413469] |  |  |  |  |  |  |  |  |  |  | 24% | 33% | 53% | 70% | 84% | 0.033 µM | 84% | 86% | 
